The text below walks through data of ChEMBL document CHEMBL1158418, “Privileged structure-guided synthesis of quinazoline derivatives as inhibitors of trypanothione reductase” (Bioorg Med Chem Lett, 2009).

Calls of active or inactive are those of the source. The rule behind the calls is not given here.

Test [1] deals with Trypanothione reductase (Trypanosoma cruzi) (UniProt P28593). Kind of test: Inhibition of Trypanosoma cruzi recombinant trypanothione reductase at 100 uM by spectrophotometry using 100 uM trypanothione disulfide.
Test [2] has the same target. Put plainly: Inhibition of Trypanosoma cruzi recombinant trypanothione reductase at 100 uM by spectrophotometry using 50 uM trypanothione disulfide.
The test system of the next test is Trypanosoma cruzi. Kind of test: Antitrypanosomal activity against Trypanosoma cruzi amastigotes infected in rat L6 cells. It counts as functional, organism-based.
In test [3] the test system is Trypanosoma brucei rhodesiense. Kind of test: Antitrypanosomal activity against Trypanosoma brucei rhodesiense bloodstream trypomastigotes. In kind it is functional, organism-based.
For a further test, the system named is Leishmania donovani. Put plainly: Antileishmanial activity against Leishmania donovani axenic amastigotes. In kind it is functional, organism-based.
In the next test the test system is Plasmodium falciparum. Kind of test: Antiplasmodial activity against intraerythrocytic form of Plasmodium falciparum. In kind it is functional, organism-based.
A further test deals with L6. Kind of test: Cytotoxicity against rat L6 cells. In kind it is cell-based.
Test [4] concerns the target T1, Trypanothione reductase (Trypanosoma cruzi, UniProt P28593). Kind of test: Inhibition of Trypanosoma cruzi recombinant trypanothione reductase by spectrophotometry-based non competitive inhibition type assay.
The target in test [5] is T1, Trypanothione reductase. Kind of test: Inhibition of Trypanosoma cruzi recombinant trypanothione reductase by spectrophotometry-based mixed inhibition type assay.
Test [6] has as its target Trypanothione reductase (Trypanosoma cruzi) (UniProt P28593). Put plainly: Inhibition of Trypanosoma cruzi recombinant trypanothione reductase at 25 uM by spectrophotometry using 100 uM trypanothione disulfide.
The target is the same in test [7]. Put plainly: Inhibition of Trypanosoma cruzi recombinant trypanothione reductase at 25 uM by spectrophotometry using 50 uM trypanothione disulfide.
For test [8], the target named is T1, Trypanothione reductase. Put plainly: Inhibition of Trypanosoma cruzi recombinant trypanothione reductase by spectrophotometry.
For test [9], the target named is T2, Glutathione reductase, mitochondrial (Homo sapiens) (UniProt P00390).
T2 sequence (whole entry): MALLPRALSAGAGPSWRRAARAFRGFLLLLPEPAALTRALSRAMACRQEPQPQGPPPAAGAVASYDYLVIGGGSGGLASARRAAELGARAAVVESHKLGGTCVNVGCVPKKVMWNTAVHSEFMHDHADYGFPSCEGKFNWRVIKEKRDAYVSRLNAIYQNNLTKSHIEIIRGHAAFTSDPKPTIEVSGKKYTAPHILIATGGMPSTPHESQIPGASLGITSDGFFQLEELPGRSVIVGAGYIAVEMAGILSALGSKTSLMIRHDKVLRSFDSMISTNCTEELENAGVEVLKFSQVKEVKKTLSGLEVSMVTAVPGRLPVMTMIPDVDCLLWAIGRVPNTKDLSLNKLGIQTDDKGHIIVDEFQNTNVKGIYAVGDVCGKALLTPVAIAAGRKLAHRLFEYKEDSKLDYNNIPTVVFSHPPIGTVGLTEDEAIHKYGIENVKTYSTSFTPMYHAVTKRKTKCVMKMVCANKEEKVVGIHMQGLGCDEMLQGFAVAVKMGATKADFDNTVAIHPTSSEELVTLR
Put plainly: Inhibition of human glutathione reductase at 10 uM by spectrophotometry in presence of 100 uM GSSG.

T1 sequence (P28593 whole entry): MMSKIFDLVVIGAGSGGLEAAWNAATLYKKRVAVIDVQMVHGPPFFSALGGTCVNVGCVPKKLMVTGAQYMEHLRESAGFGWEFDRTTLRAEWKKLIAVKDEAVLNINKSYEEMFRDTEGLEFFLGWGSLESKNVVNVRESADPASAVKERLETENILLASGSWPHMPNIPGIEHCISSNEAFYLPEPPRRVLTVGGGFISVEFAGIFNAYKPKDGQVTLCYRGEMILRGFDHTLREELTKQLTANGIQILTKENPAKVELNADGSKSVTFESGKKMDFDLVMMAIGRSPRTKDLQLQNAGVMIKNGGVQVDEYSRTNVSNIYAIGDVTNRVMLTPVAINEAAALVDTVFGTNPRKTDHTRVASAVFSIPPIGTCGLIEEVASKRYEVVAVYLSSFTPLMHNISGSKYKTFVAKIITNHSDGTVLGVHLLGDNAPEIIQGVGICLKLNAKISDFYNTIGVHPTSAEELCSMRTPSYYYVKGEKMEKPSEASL
Chain of Trypanothione reductase (Trypanosoma cruzi) (P28593 whole entry, looked up): as the sequence (P28593 whole entry) above

On to `COC1=CC(=O)C=C(N2CCN(c3nc(N)c4cc(OC)c(OC)cc4n3)CC2)C1=O`, for which the inhibition (in general, the drop in the measured response relative to a control, in per cent) was 75% in test [1] and 69% in [2]. The IC50 – broadly, the concentration needed to halve the response being measured – was 35.6 µM in the test with Trypanosoma cruzi; 1.98 µM in [3]; 45.7 µM in the test on Leishmania donovani; 3.01 µM in the test on Plasmodium falciparum; 52.5 µM with L6. For the same molecule, the Ki (commonly the dissociation constant of the complex between target and ligand, obtained from inhibition or displacement) at Trypanothione reductase [4] came out at 32 µM.
On to `COc1cc2nc(N3CCN(C(=O)Cc4c[nH]c5ccccc45)CC3)nc(N)c2cc1OC`, for which the inhibition in test [1] is 23%; in [2] it was 13%. In addition, the IC50 was 10.2 µM in the test with Trypanosoma cruzi; 2.21 µM in test [3]; 42.2 µM in the test on Leishmania donovani; 1.35 µM in the test on Plasmodium falciparum; 19.6 µM with L6.
Regarding `CN(C)CCOc1cc2nc(N3CCN(C(=O)Cc4c[nH]c5ccccc45)CC3)nc(N)c2cc1OCCN(C)C`, the inhibition in test [1] was determined as 33%; in test [2] it was 44%. Moreover, the IC50 was greater than 50 µM with Trypanosoma cruzi; 21.8 µM in [3]; greater than 54 µM with Leishmania donovani; 2.19 µM with Plasmodium falciparum; greater than 161 µM in the test on L6.
In the case of `CN(C)CCOc1cc2nc(N3CCN(C4=CC(=O)c5ccccc5C4=O)CC3)nc(N)c2cc1OCCN(C)C`, the Ki on Trypanothione reductase [4] came out at 11 µM.
For the molecule `COc1cc(C(=N)NC2CCC(CC3CCC(/N=C(\N)c4ccc(OCc5ccccc5)c(OC)c4)CC3)CC2)ccc1OCc1ccccc1` (stereo not drawn), the Ki on Trypanothione reductase [5] is 16 µM.
For `COc1cc2nc(N3CCN(C4=CC(=O)c5ccccc5C4=O)CC3)nc(N)c2cc1OC`, the inhibition in test [6] was 57%; in [7] it was 53%. Besides, the results for the Ki on Trypanothione reductase [8] and at Trypanothione reductase [5] were 7.5 µM and 22 µM, respectively. The inhibition result in [9] was “inactive”. The IC50 with Trypanosoma cruzi came to 3.68 µM; in test [3], 0.12 µM; with Leishmania donovani it was 1.78 µM; in the test with Plasmodium falciparum, 0.53 µM; with L6, 2.76 µM.
For `COc1cc2nc(N3CCN(C(=O)[C@@H]4Cc5ccccc5CN4)CC3)nc(N)c2cc1OC`, the inhibition in [1] and in [2] was 0% in each case. Besides, the IC50 in the test with Trypanosoma cruzi was 14.3 µM; in test [3] it was 1.81 µM; in the test with Leishmania donovani, greater than 67 µM; in the test with Plasmodium falciparum, 2.1 µM; in the test on L6, 14.2 µM.
Regarding `COc1cc2nc(N3CCN(C(=O)[C@H]4Cc5ccccc5CN4)CC3)nc(N)c2cc1OC`, the inhibition in [1] and in [2] was 0% in each case. Further, the IC50 is 27.6 µM with Trypanosoma cruzi; 5.37 µM in [3]; greater than 67 µM in the test with Leishmania donovani; 1.24 µM in the test with Plasmodium falciparum; 37.2 µM with L6.
